# Experiments:
# Adenosine receptor A2a [1] = biological target: T1, Adenosine receptor A2a (Rattus norvegicus, UniProt P30543); test: (§1) Binding affinity for Adenosine A2A receptor from rat striatal membranes using [3H]-[…]
# Adenosine receptor A1 [2] = biological target: T2, Adenosine receptor A1 (Rattus norvegicus, UniProt P25099); test: Binding affinity for A1 receptors from rat cerebral cortex membranes using [3H]-(R(-PIA; format: tissue-based
# T2 sequence (P25099 whole entry): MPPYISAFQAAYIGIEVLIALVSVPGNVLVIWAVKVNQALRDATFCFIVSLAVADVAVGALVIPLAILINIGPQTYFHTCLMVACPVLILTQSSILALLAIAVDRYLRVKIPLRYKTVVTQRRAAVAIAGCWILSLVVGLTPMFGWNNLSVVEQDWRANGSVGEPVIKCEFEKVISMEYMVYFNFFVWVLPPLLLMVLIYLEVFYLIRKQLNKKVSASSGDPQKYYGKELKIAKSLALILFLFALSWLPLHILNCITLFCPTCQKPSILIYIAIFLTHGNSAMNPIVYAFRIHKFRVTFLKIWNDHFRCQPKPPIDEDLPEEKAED
# Adenosine receptor A3 [3] = biological target: T3, Adenosine receptor A3 (Homo sapiens, UniProt P0DMS8); test: biochemical
# T3 sequence (P0DMS8 whole entry): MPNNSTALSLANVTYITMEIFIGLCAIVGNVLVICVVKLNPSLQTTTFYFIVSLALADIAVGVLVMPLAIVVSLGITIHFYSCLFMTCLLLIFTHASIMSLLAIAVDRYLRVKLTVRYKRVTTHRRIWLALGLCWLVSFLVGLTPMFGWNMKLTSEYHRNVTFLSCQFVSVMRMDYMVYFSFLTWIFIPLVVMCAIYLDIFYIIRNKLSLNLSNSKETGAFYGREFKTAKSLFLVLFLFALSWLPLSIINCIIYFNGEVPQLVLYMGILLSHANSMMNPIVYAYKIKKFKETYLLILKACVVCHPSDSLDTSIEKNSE
# Description: In vitro binding affinity at human Adenosine A3 receptor from HEK293 cells by [125I]AB-MECA displacement.
# [4] = Relative binding to rat A1 and human A3 adenosine receptors (ratio of IC50)
# [5] = Relative binding to rat A2A and human A3 adenosine receptors (ratio of IC50)
# Adenosine receptor A2a [6] = biological target: T1, Adenosine receptor A2a; test: Displacement of [3H]-[…] from Adenosine A2A receptor of rat striatal membranes; format: cell membranes, Membrane
# Adenosine receptor A1 [7] = biological target: T2, Adenosine receptor A1; test: Displacement of [3H]-(R)-PIA from Adenosine A1 receptor of rat cerebral cortex membranes; format: cell membranes, Membrane
# Adenosine receptor A1 [8] = biological target: T2, Adenosine receptor A1; test: Binding affinity for Adenosine A1 receptor from rat cerebral cortex membranes using [3H](R)-PIA; format: tissue-based
# Adenosine receptor A3 [9] = biological target: T4, Adenosine receptor A3 (Rattus norvegicus, UniProt P28647)
# T4 sequence (P28647 whole entry): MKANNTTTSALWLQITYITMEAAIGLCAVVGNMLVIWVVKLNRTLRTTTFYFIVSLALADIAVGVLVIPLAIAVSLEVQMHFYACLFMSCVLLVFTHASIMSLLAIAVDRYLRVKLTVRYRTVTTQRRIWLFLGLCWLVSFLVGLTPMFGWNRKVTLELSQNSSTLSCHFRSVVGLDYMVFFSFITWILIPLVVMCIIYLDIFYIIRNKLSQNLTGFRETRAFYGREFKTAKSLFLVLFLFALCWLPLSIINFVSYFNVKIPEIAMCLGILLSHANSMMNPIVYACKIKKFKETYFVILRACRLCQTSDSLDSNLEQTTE
# Description: Binding affinity for Adenosine A3 receptor from rat striatal membranes
# [10] = biological target: Adenosine receptor A2a (Rattus norvegicus) (UniProt P30543); test: as §1; conditions: concentration not given here
# Adenosine receptor A2a (Rattus norvegicus), sequence (P30543 whole entry): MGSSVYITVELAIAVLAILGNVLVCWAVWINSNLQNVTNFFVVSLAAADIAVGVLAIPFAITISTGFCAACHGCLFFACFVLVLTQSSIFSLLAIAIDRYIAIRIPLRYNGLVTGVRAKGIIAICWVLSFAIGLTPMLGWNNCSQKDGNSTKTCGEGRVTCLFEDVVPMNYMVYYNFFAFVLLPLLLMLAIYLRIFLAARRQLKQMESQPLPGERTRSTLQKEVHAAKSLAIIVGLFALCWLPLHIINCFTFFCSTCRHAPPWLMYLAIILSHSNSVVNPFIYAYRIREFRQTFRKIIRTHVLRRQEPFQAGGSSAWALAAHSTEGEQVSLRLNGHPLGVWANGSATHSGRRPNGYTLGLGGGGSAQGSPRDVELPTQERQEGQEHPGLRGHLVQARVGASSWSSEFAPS
# [11] = biological target: T5, Adenosine receptor A1 (Rattus norvegicus) (UniProt P25099); test: Binding affinity for Adenosine A1 receptor from rat cerebral cortex membranes using [3H]-(R)-PIA; format: tissue-based; conditions: concentration not given here
# T5 sequence (whole entry): T2 sequence (P25099 whole entry)
# T1 sequence (P30543 whole entry): as above
Structure (SMILES),Ki (Adenosine receptor A3 [3]),Ratio [4],Ratio [5],Ki (Adenosine receptor A2a [6]),also measured
CCOC(=O)C1=C(c2ccccc2)Nc2cc(C)c(C(=O)OCC)cc2C1/C=C/c1ccccc1 (stereo not given),0.11 nM,–,–,–,IC50 (Adenosine receptor A2a [1]): 4.77 nM; IC50 (Adenosine receptor A1 [2]): 5.93 nM
Cc1ccc(-c2oc3ccc(Cl)cc3c(=O)c2Cl)c(OC(C)C)c1,–,–,–,–,IC50 (Adenosine receptor A2a [1]): > 100 nM; Ki (Adenosine receptor A1 [8]): > 100000 nM
CC(C)(C)OC(=O)NCCCC(=O)Nc1nc2ccc(Cl)cc2c2nc(-c3ccco3)nn12,32.9 nM,2.8,4.1,135 nM,–
Nc1nc2ccc(Cl)cc2c2nc(-c3ccco3)nn12 [CGS-15943],–,–,–,–,IC50 (Adenosine receptor A2a [1]): 3.3 nM; Ki (Adenosine receptor A3 [9]): 100000 nM
Oc1nc2ccc(Cl)cc2c2nc(-c3ccco3)nn12,–,15,17,4380 nM,Ki (Adenosine receptor A1 [7]): 3950 nM
Nc1nc2ccc(Cl)cc2c2nc(-c3ccc(Br)o3)nn12,64 nM,–,–,–,IC50 (Adenosine receptor A2a [1]): 531 nM
NCCCC(=O)Nc1nc2ccc(Cl)cc2c2nc(-c3ccco3)nn12,80.8 nM,0.14,0.18,14.4 nM,–
CCCCC(=O)Nc1nc2ccc(Cl)cc2c2nc(-c3ccco3)nn12,–,1.3,2.3,48.8 nM,–
O=C(Nc1nc2ccc(Cl)cc2c2nc(-c3ccc(Br)o3)nn12)c1ccccc1,–,–,–,–,inhibition [10]: < 10%; inhibition [11]: < 10%
CCCn1c(=O)n2nc(-c3ccco3)nc2c2cc(Cl)ccc21,1810 nM,1,3.8,6960 nM,Ki (Adenosine receptor A1 [7]): 1850 nM

# The next lines start with results.
Ki (Adenosine receptor A3 [3]),Ratio [4],Ratio [5],Ki (Adenosine receptor A2a [6]),Structure (SMILES),also measured
23.8 nM,8.4,13,310 nM,O=C(Nc1nc2ccc(Cl)cc2c2nc(-c3ccco3)nn12)c1cccc(I)c1,Ki (Adenosine receptor A1 [7]): 200 nM
–,2.2,2.6,37.6 nM,CCCC(=O)Nc1nc2ccc(Cl)cc2c2nc(-c3ccco3)nn12,–
–,–,–,36.3 nM,CC(=O)Nc1nc2ccc(Cl)cc2c2nc(-c3ccco3)nn12,–
3.03 nM,220,90,273 nM,O=C(Nc1nc2ccc(Cl)cc2c2nc(-c3ccco3)nn12)c1ccccc1,Ki (Adenosine receptor A1 [7]): 680 nM
–,40,14,–,CCC(=O)Nc1nc2ccc(Cl)cc2c2nc(-c3ccco3)nn12,–
–,0.84,0.36,88.8 nM,CC(C)(C)C(=O)Nc1nc2ccc(Cl)cc2c2nc(-c3ccco3)nn12,–

# From ChEMBL document CHEMBL1129441, “Derivatives of the triazoloquinazoline adenosine antagonist (CGS15943) are selective for the human A3 receptor subtype” (J Med Chem, 1996)
